# Source: patent US11046714B2, “2,2-difluorodioxolo A2A receptor antagonists” (Merck Sharp & Dohme Corp., priority 2013, dated 2021)
# Target: human A2A receptor (Homo sapiens (Human), UniProt P29274)
# Test: competition binding assay using Scintillation Proximity technology
# Settings: membranes from CHO-K1 cells expressing the human A2a receptor; 2.0 nM tritiated compound; Cheng-Prusoff
# Method in brief: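 Membranes (1.0 μg) from CHO-K1 cells expressing human A2A were treated with adenosine deaminase, then incubated 1 h at room temperature with compound (3000–0.15 nM) and 2.0 nM tritiated SCH-type ligand on WGA SPA beads in PBS plus 10 mM MgCl2. Nonspecific binding was defined with 1 μM CGS 15943. Ki was derived from EC50 via Cheng-Prusoff.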
# human A2A receptor, sequence (P29274 whole entry): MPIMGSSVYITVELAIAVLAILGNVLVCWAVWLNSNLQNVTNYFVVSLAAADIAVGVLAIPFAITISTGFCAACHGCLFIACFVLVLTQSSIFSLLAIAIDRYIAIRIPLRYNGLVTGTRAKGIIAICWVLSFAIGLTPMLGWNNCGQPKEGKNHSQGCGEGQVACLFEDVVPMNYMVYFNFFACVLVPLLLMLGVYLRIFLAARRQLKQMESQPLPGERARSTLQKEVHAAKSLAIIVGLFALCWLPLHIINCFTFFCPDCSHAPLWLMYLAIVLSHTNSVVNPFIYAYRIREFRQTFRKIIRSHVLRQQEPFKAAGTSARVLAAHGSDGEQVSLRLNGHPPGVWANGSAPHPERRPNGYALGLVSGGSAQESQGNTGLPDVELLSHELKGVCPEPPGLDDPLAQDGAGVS
row,Structure (SMILES),Ki
1,"Nc1nc2c3c(ccc2c2nc(CCN4CCN(C5CCCC5)C(=O)C4)nn12)OC(F)(F)O3 [Example 49, 4-[2-(5-amino-2,2-difluoro[1,3]dioxolo[4,5-h][1,2,4]triazolo [1,5-c]quinazolin-8-yl)ethyl]-1-cyclopentylpiperazin-2-one]",1.6 nM
2,"Nc1nc2c3c(ccc2c2nc(CCN4CCN(c5cccc(F)c5)C(=O)C4)nn12)OC(F)(F)O3 [Example 50, 4-[2-(5-amino-2,2-difluoro[1,3]dioxolo[4,5-h][1,2,4]triazolo [1,5-c]quinazolin-8-yl)ethyl]-1-(3-fluorophenyl)piperazin-2-one]",1.1 nM
3,"Nc1nc2c3c(ccc2c2nc(CCN4C[C@H]5CCCN[C@H]5C4)nn12)OC(F)(F)O3 [Example 51, 2,2-difluoro-8-{2-[(4aR,7aR)-octahydro-6H-pyrrolo[3,4-b]pyridin-6-yl]ethyl}[1,3]dioxolo [4,5-h][1,2,4]triazolo[1,5-c]quinazolin-5-amine]",55 nM
4,"Nc1nc2c3c(ccc2c2nc(CCN4CC5CNC[C@H]5C4)nn12)OC(F)(F)O3 (stereo partly drawn) [Example 52, 2,2-difluoro-8-{2-[(3aS)-hexahydropyrrolo[3,4-c]pyrrol-2(1H)-yl]ethyl}[1,3]dioxolo [4,5-h][1,2,4]triazolo[1,5-c]quinazolin-5-amine]",40 nM
5,"Nc1nc2c3c(ccc2c2nc(CCN4CCC5(CCNCC5)C4)nn12)OC(F)(F)O3 [Example 53, 8-[2-(2,8-diazaspiro[4.5]dec-2-yl)ethyl]-2,2-difluoro[1,3] dioxolo[4,5-h][1,2,4]triazolo [1,5-c]quinazolin-5-amine]",39 nM
6,"Nc1nc2c3c(ccc2c2nc(CCN4CCC5(CCNCC5)CC4)nn12)OC(F)(F)O3 [Example 54, 8-[2-(3,9-diazaspiro[5.5]undec-3-yl)ethyl]-2,2-difluoro[1,3] dioxolo[4,5-h][1,2,4]triazolo [1,5-c]quinazolin-5-amine]",320 nM
7,"Nc1nc2c3c(ccc2c2nc(CCN4CCCC45CCNCC5)nn12)OC(F)(F)O3 [Example 55, 8-[2-(1,8-diazaspiro[4.5]dec-1-yl)ethyl]-2,2-difluoro[1,3] dioxolo[4,5-h][1,2,4]triazolo [1,5-c]quinazolin-5-amine]",22 nM
8,"Nc1nc2c3c(ccc2c2nc(CCN4CCCC5(CCNCC5)C4)nn12)OC(F)(F)O3 [Example 56, 8-[2-(2,9-diazaspiro[5.5]undec-2-yl)ethyl]-2,2-difluoro[1,3] dioxolo[4,5-h][1,2,4]triazolo [1,5-c]quinazolin-5-amine]",27 nM
9,"Nc1nc2c3c(ccc2c2nc(CCNC4CC5(CNC5)C4)nn12)OC(F)(F)O3 [Example 57, 8-[2-(2-azaspiro[3.3]hept-6-ylamino)ethyl]-2,2-difluoro [1,3]dioxolo[4,5-h][1,2,4] triazolo[1,5-c]quinazolin-5-amine]",90 nM
10,"Nc1nc2c3c(ccc2c2nc(CCNC4(C(F)(F)F)CCC4)nn12)OC(F)(F)O3 [Example 58, 2,2-difluoro-8-(2-{[1-(trifluoromethyl)cyclobutyl]-amino}ethyl)[1,3]dioxolo[4,5-h][1,2,4]triazolo[1,5-c]quinazolin-5-amine]",1 nM
11,"Nc1nc2c3c(ccc2c2nc(CCNCc4ccc(C(F)(F)F)cc4)nn12)OC(F)(F)O3 [Example 59, 2,2-difluoro-8-(2-{[4-(trifluoromethyl)benzyl]amino}ethyl)[1,3]dioxolo[4,5-h][1,2,4]triazolo[1,5-c]quinazolin-5-amine]",6.2 nM
12,"Cc1csc(CN(CCc2nc3c4ccc5c(c4nc(N)n3n2)OC(F)(F)O5)CC2CC2)n1 [Example 60, 8-(2-{(cyclopropylmethyl)[(4-methyl-1,3-thiazol-2-yl)methyl]amino}ethyl)-2,2-difluoro[1,3]dioxolo[4,5-h][1,2,4]triazolo[1,5-c]quinazolin-5-amine]",0.7 nM
13,"Cc1ncc(CN(CCc2nc3c4ccc5c(c4nc(N)n3n2)OC(F)(F)O5)CC2CC2)s1 [Example 61, 8-(2-{(cyclopropylmethyl)[(2-methyl-1,3-thiazol-5-yl)methyl]amino}ethyl)-2,2-difluoro[1,3]dioxolo[4,5-h][1,2,4]triazolo[1,5-c]quinazolin-5-amine]",1.5 nM
14,"Nc1nc2c3c(ccc2c2nc(CCN4CCCC(C(F)(F)F)C4)nn12)OC(F)(F)O3 (stereo not drawn) [Example 62, 2,2-difluoro-8-{2-[3-(trifluoromethyl)piperidin-1-yl]ethyl}[1,3]dioxolo[4,5-h][1,2,4]triazolo[1,5-c]quinazolin-5-amine]",3.6 nM
15,"C[C@@H]1CN(CCc2nc3c4ccc5c(c4nc(N)n3n2)OC(F)(F)O5)C[C@@H](C)O1 [Example 63, 8-{2-[(2R,6R)-2,6-dimethylmorpholin-4-yl]ethyl}-2,2-difluoro[1,3]dioxolo[4,5-h][1,2,4] triazolo[1,5-c]quinazolin-5-amine]",36 nM
16,"C[C@H](Cc1nc2c3ccc4c(c3nc(N)n2n1)OC(F)(F)O4)N1Cc2ccncc2C1 [Example 74, (R)-8-(2-(1H-pyrrolo[3,4-c]pyridin-2(3H)-yl)propyl)-2,2-difluoro-[1,3]dioxolo[4,5-h][1,2,4]triazolo[1,5-c]quinazolin-5-amine]",7.1 nM
17,"C[C@H](Cc1nc2c3ccc4c(c3nc(N)n2n1)OC(F)(F)O4)N1CCc2cccnc21 [Example 75, 8-[(2R)-2-(2,3-dihydro-1H-pyrrolo [2,3-b]pyridin-1-yl)propyl]-2,2-difluoro[1,3]dioxolo[4,5-h][1,2,4] triazolo[1,5-c]quinazolin-5-amine]",4.2 nM
18,"C[C@H](Cc1nc2c3ccc4c(c3nc(N)n2n1)OC(F)(F)O4)N1CCc2ccncc21 [Example 76, 8-[(2R)-2-(2,3-dihydro-1H-pyrrolo [2,3-c]pyridin-1-yl)propyl]-2,2-difluoro[1,3]dioxolo[4,5-h][1,2,4] triazolo[1,5-c]quinazolin-5-amine]",1.8 nM
19,"C[C@H](Cc1nc2c3ccc4c(c3nc(N)n2n1)OC(F)(F)O4)N1CCc2ccncc2C1 [Example 77, 8-[(2R)-2-(3,4-dihydro-2,7-naphthyridin-2(1H)-yl)propyl]-2,2-difluoro[1,3]dioxolo[4,5-h] [1,2,4]triazolo[1,5-c]quinazolin-5-amine]",3.9 nM
20,"C[C@H](Cc1nc2c3ccc4c(c3nc(N)n2n1)OC(F)(F)O4)N1CCc2cccnc2C1 [Example 78, 8-[(2R)-2-(5,8-dihydro-1,7-naphthyridin-7(6H)-yl)propyl]-2,2-difluoro[1,3]dioxolo[4,5-h] [1,2,4]triazolo[1,5-c]quinazolin-5-amine]",1.4 nM
21,"Cc1nc2c(o1)CN([C@H](C)Cc1nc3c4ccc5c(c4nc(N)n3n1)OC(F)(F)O5)CC2 [Example 79, 2,2-difluoro-8-[(2R)-2-(2-methyl-6,7-dihydro[1,3]oxazolo[5,4-c]pyridine-5(4H)-yl)propyl][1,3] dioxolo[4,5-h][1,2,4]triazolo[1,5-c] quinazolin-5-amine]",1.3 nM
22,"Cc1nc2c(s1)CN([C@H](C)Cc1nc3c4ccc5c(c4nc(N)n3n1)OC(F)(F)O5)CC2 [Example 80, 2,2-difluoro-8-[(2R)-2-(2-methyl-6,7-dihydro[1,3]thiazolo[5,4-c]pyridin-5(4H)-yl)propyl][1,3] dioxolo[4,5-h][1,2,4]triazolo [1,5-c]quinazolin-5-amine]",2.6 nM
23,"C[C@H](Cc1nc2c3ccc4c(c3nc(N)n2n1)OC(F)(F)O4)N1CCc2nc(C3CC3)oc2C1 [Example 81, 8-[(2R)-2-(2-cyclopropyl-6,7-dihydro [1,3]oxazolo[5,4-c]pyridin-5(4H)-yl)propyl]-2,2-difluoro[1,3] dioxolo[4,5-h][1,2,4]triazolo[1,5-c]quinazolin-5-amine]",2.4 nM
24,"Cc1nc2c(s1)CCN([C@H](C)Cc1nc3c4ccc5c(c4nc(N)n3n1)OC(F)(F)O5)C2 [Example 82, 2,2-difluoro-8-[(2R)-2-(2-methyl-6,7-dihydro[1,3]thiazolo[4,5-c]pyridin-5(4H)-yl)propyl][1,3] dioxolo[4,5-h][1,2,4]triazolo [1,5-c]quinazolin-5-amine]",1.5 nM
25,"Cc1cc2n(n1)CCN([C@H](C)Cc1nc3c4ccc5c(c4nc(N)n3n1)OC(F)(F)O5)C2 [Example 83, 2,2-difluoro-8-[(2R)-2-(2-methyl-6,7-dihydropyrazolo[1,5-a]pyrazin-5(4H)-yl)propyl][1,3]dioxolo[4,5-h] [1,2,4]triazolo[1,5-c]quinazolin-5-amine]",3.8 nM
26,"C[C@H](Cc1nc2c3ccc4c(c3nc(N)n2n1)OC(F)(F)O4)N1CC(C)(F)C1 [Example 84, 2,2-difluoro-8-[(2R)-2-(3-fluoro-3-methylazetidin-1-yl)propyl][1,3] dioxolo[4,5-h][1,2,4]triazolo[1,5-c]quinazolin-5-amine]",4.9 nM
27,"C[C@@H](Cc1nc2c3ccc4c(c3nc(N)n2n1)OC(F)(F)O4)N1Cc2ccncc2C1 [Example 87, (S)-8-(2-(1H-pyrrolo[3,4-c]pyridin-2(3H)-yl)propyl)-2,2-difluoro-[1,3]dioxolo[4,5-h][1,2,4]triazolo[1,5-c]quinazolin-5-amine]",7.7 nM
28,"C[C@@H](Cc1nc2c3ccc4c(c3nc(N)n2n1)OC(F)(F)O4)N1CC(C)(F)C1 [Example 88, 2,2-difluoro-8-[(2S)-2-(3-fluoro-3-methylazetidin-1-yl)propyl][1,3] dioxolo[4,5-h][1,2,4]triazolo [1,5-c]quinazolin-5-amine]",4.8 nM
29,"Nc1nc2c3c(ccc2c2nc(CCn4cccn4)nn12)OC(F)(F)O3 [Example 99, 8-(2-(1H-pyrazol-1-yl)ethyl)-2,2-difluoro-[1,3]dioxolo[4,5-h][1,2,4]triazolo[1,5-c]quinazolin-5-amine]",2.7 nM
30,"CC(C)(Cc1nc2c3ccc4c(c3nc(N)n2n1)OC(F)(F)O4)N1CC(F)C1 [Example 101, 2,2-difluoro-8-(2-(3-fluoroazetidin-1-yl)-2-methylpropyl)-[1,3]dioxolo[4,5-h][1,2,4]triazolo[1,5-c]quinazolin-5-amine]",31 nM
